The values that follow are results of earlier work, collected in patent US20230172854A1 (UNIWERSYTET HUMANISTYCZNO-PRZYRODNICZY IM JANA DLUGOSZA W …, priority 2020, published 2023).

The conditions of the data set: estimated.

`CCCCC(=O)N(Cc1ccc(-c2ccccc2-c2nnn[nH]2)cc1)[C@H](C(=O)O)C(C)C` [valsartan]: the bioavailability is 25%.

As usually defined, the bioavailability is dose-corrected exposure relative to a reference, in per cent.
